According to paper PMC5069162 (Anesthesiology, 2016):
Several values for one entry are separate records, joined by “and”; a condition that tells them apart may be missing. Equal values may be shown once. Read-outs that look alike come from different tables or passages of the source.

Key:
11β-hydroxylase [1] = molecular target: T1, 11β-hydroxylase (Rattus norvegicus, UniProt P15393); format: binding; details: for IC50 / Hill coefficient for inhibition of specific 3H-etomidate binding: 2 nM 3H-etomidate; for IC50: 0.07 mg/ml protein; for Hill coefficient for inhibition of specific 3H-etomidate binding: equation 2; for IC50 higher than that of etomidate: ratio of IC50s for 3H-etomidate binding
T1 sequence (P15393 25-499): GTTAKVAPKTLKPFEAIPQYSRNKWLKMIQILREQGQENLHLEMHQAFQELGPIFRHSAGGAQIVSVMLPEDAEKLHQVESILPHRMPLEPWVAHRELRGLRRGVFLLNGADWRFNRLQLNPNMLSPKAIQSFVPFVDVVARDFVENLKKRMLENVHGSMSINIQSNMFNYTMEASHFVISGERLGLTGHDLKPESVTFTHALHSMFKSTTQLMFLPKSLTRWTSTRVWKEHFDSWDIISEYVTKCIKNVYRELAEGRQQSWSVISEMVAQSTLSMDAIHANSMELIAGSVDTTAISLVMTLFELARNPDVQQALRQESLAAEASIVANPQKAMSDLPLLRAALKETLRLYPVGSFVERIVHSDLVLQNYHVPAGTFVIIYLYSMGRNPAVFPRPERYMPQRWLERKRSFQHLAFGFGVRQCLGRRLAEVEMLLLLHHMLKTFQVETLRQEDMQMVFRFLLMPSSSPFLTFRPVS

11β-hydroxylase [2] = molecular target: T1, 11β-hydroxylase; format: binding
rats = details: in rats; cited from earlier work
rat adrenocortical cells = details: read-out: IC50 for inhibiting corticosterone synthesis; cited from earlier work
[3] = test system: H295R adrenocortical cells; details: cited from earlier work
[4] = after 2-hr infusion of parent drug in dogs; cited from earlier work
11β-hydroxylase [5] = details: estimated by Zolle et al.; cited from earlier work
[6] = half-inhibitory concentration (IC50) for specific 3H-etomidate binding
[7] = read-out: half-inhibitory concentration (IC50) for specific 3H-etomidate binding

Molecule	IC50 (11β-hydroxylase [1]; [6])	Hill coefficient for inhibition of specific 3H-etomidate binding (11β-hydroxylase [1])	IC50 (11β-hydroxylase [1]; [7])	further results
CC(C)c1cccc(C(C)C)c1O [propofol, reference compound]	> 100 µM	–	–	–
CCOC(=O)c1cncn1[C@H](C)c1ccccc1 [etomidate, reference compound]	–	−0.82	–	Kd (11β-hydroxylase [2]): 0.021 µM; maximum concentration of binding sites (Bmax), homologous competition (11β-hydroxylase [2]; 2 nM 3H-etomidate vs cold etomidate, equation 1): 11,700 CPM; hypnotic potency (rats): 0.53 ± 0.17 mg/kg
Cc1cccc([C@H](C)c2cnc[nH]2)c1C [dexmedetomidine, reference compound]	2.2 µM	−0.33	–	IC50 (rat adrenocortical cells): 1 µM
CNC1(c2ccccc2Cl)CCCCC1=O (centres unmarked) [ketamine, reference compound]	≥ 50 µM and 79 µM	−0.23	–	–
CCOC(=O)c1cccn1[C@H](C)c1ccccc1 [carboetomidate]	–	−0.27	≥ 50 µM and 50 µM	IC50 higher than that of etomidate (11β-hydroxylase [1]): 1900 fold; IC50 for suppressing in vitro cortisol synthesis higher than etomidate ([3]; H295R adrenocortical cells): 2000 fold; potency at inhibiting cortisol synthesis relative to etomidate ([3]; adrenocortical cell line): three orders of magnitude less potent than etomidate
C[C@H](c1ccccc1)n1cncc1C(=O)O [etomidate-CA]	–	−0.32	1100 µM	maximal metabolite concentration [4]: 1680 ng/ml and 7.8 μM
COC(=O)c1cncn1C(C)c1ccc(I)cc1 (centres unmarked)	–	–	–	Kd (11β-hydroxylase [5]): 0.0116 ± 0.0025 µM
cyclopropyl methoxycarbonyl metomidate [CPMM]	–	−0.55	0.143 µM	IC50 higher than that of etomidate (11β-hydroxylase [1]): 5.5 fold; hypnotic potency (rats): 0.69 ± 0.04 mg/kg
